Values of other authors, collected in patent US20240265995A1, “System of Predicting Sensitivity of Klebsiella against Cefoxitin and Method” (priority 2023, published 2024).

Tested on: carbapenem resistant Klebsiella pneumoniae
Conditions: carbapenem resistant Klebsiella pneumoniae isolated from 2014 to 2017 (252/403)

## C[C@@H](O)[C@H]1C(=O)N2C(C(=O)O)=C(S[C@@H]3CN[C@H](C(=O)N(C)C)C3)[C@H](C)[C@H]12 [meropenem]
  resistance rate against meropenem: 62.5%
